Data on 22 compounds can be found in patent US8431593B2, “Heteroaryl amide derivatives” (H. Lundbeck A/S, priority 2006, dated 2013).

Each structure is given as a SMILES string.

The first experiment deals with T1, P2X7 receptor (Homo sapiens, UniProt Q99572).
T1 construct: host or cells: SH-SY5Y
T1 sequence (Q99572 1-595): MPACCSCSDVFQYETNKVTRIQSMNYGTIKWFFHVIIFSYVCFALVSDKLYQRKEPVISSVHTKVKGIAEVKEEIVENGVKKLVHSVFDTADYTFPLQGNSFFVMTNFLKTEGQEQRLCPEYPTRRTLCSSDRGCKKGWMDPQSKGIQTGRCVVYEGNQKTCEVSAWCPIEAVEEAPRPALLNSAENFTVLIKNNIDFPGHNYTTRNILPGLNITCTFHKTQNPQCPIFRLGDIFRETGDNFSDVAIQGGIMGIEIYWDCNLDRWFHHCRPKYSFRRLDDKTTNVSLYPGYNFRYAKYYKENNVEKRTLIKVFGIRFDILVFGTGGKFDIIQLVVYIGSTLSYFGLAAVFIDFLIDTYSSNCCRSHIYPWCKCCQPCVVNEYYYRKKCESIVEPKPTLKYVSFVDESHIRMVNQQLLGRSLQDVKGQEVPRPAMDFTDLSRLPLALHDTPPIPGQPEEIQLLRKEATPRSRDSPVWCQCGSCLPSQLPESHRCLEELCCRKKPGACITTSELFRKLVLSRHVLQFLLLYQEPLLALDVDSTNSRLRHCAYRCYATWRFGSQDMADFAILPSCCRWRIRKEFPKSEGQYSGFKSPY
The experiment can be described thus: P2X7 calcium mobilization assay, high throughput, antagonist activity (Example 4A). The format is cell-based.
Conditions: not given
In a few lines:
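Dye-loaded cells (100,000/well, seeded previous day) are pre-exposed to compound for an hour at room temperature. Fluorescence maxima are baseline-corrected against no-agonist wells and compared with the averaged agonist-well maximum.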
Turning to `C[C@H](O)CNC(=O)Cc1cn2c(C(=O)NCC34CC5CC(CC(C5)C3)C4)cccc2n1` [Compound 29, N-(adamantan-1-ylmethyl)-2-(2-{[(2S)-2-hydroxy-propyl]amino}-2-oxoethyl)imi-dazo[1,2-a]pyridine-5-carboxamide], the IC50 is less than 2000 nM.

The experiment is the same for the next values; noted with them: 50% decrease in the fluorescence response of cells exposed to 80 μM 2′(3′)-O-(4-benzoyl-benzoyl)adenosine 5′-triphosphate; Example 4A; read-out: IC50.
For the compound `CC1(C)[C@@H]2CC[C@@H](CNC(=O)c3cccc4nc(CC(=O)N5C[C@@H]6C[C@H]5CN6)cn34)[C@H]1C2` [Compound 559, 2-{2-[(1S,4S)-2,5-diazabicyclo[2.2.1]hept-2-yl]-2-oxoethyl}-N-{[(1R,2R,5R)-6,6-dimethylbicyclo[3.1.1]hept-2-yl]methyl}imidazo[1,2-a]pyridine-5-carboxamide], the IC50 was less than 2000 nM.
The same measure, in the same setting: the value for `CCOC(=O)C(C)(C)c1cn2c(C(=O)N(C)CC34CC5CC(CC(C5)C3)C4)cccc2n1` [Compound 451, ethyl 2-{5-[(adamantan-1-ylmethyl)(methyl)carbamoyl]imidazo [1,2-a]pyridin-2-yl} -2-methyl-propanoate] was less than 2000 nM.
As for `CCOC(=O)CN(C)C(=O)c1cn2c(C(=O)NC[C@@H]3CC[C@H]4C[C@@H]3C4(C)C)cccc2n1` [Compound 482, ethyl N-{[5-({[(1S,2R,5S)-6,6-dimethylbicyclo[3.1.1]hept-2-yl]methyl}carbamoyl)imidazo[1,2-a]pyridin-2-yl]carbonyl}-N-methylglycinate], the IC50 is less than 2000 nM.
Same read-out and setting: under `CN(C)CCN(C(=O)c1cn2c(C(=O)NCC34CC5CC(CC(C5)C3)C4)cccc2n1)C1CCNCC1` [Compound 617, 5-N-(adamantan-1-ylmethyl)-2-N-[2-(dimethylamino)ethyl]-2-N-piperidin-4-ylimidazo[1,2-a]pyridine-2,5-dicarboxamide] stands less than 2000 nM.

Staying with this experiment, now noted: 50% decrease in the fluorescence response of cells exposed to 80 μM of 2′(3′)-O-(4-benzoyl-benzoyl)adenosine 5′-triphosphate; Example 4A; read-out: IC50.
Consider `CC(COS(C)(=O)=O)c1cn2c(C(=O)NCC34CC5CC(CC(C5)C3)C4)cccc2n1` (stereo not shown) [Compound 741, 2-{5-[(adamantan-1-ylmethyl)carbamoyl]imidazo[1,2-a]pyridin-2-yl}propyl methanesulfonate], for which the IC50 was less than 2000 nM.
Still for that read-out and setting: under `Cc1cnc(N(C)Cc2cn3c(C(=O)NCC45CC6CC(CC(C6)C4)C5)cccc3n2)nc1N` [Compound 772, N-(adamantan-1-ylmethyl)-2-{[(4-amino-5-methylpyrimidin-2-yl)(methyl)amino]methyl}imidazo [1,2-a]pyridine-5-carboxamide] stands less than 2000 nM.
Same read-out and setting: under `O=C(Nc1nnn[nH]1)c1cn2c(C(=O)NCC34CC5CC(CC(C5)C3)C4)cccc2n1` [Compound 815, 5-N-(adamantan-1-ylmethyl)-2-N-1H-tetrazol-5-ylmidazo[1,2-a] pyridine-2,5-dicarboxamide] stands less than 2000 nM; under `CC(C)CC(CNC(=O)c1cccc2nc(CN3CC[C@@H](N)C3)cn12)C1CCCCC1` (stereo partly shown) [Compound 739, 2-[(3-aminopyrrolidin-1-yl)methyl]-N-(2-cyclohaxyl-4-methylpentyl)imidazo [1,2-a]pyridine-5-carboxamide], less than 2000 nM.
Still for that read-out and setting: under `O=C(NCC12CC3CC(CC(C3)C1)C2)c1cccc2nc(C(=O)N3CCN(C4CCOCC4)CC3)cn12` [Compound 721, N-(adamantan-1-ylmethyl)-2-{[4-(tetrahydro-2H-pyran-4-yl)piperazin-1-yl]carbonyl}imidazo[1,2-a]pyridine-5-carboxamide] stands less than 2000 nM; under `CC(C)CC(CNC(=O)c1cccc2nc(C(=O)N3CC[C@@H](N)C3)cn12)c1cccnc1` (stereo partly shown) [Compound 746, 2-[(3-aminopyrrolidin-1-yl)carbonyl]-N-(4-methyl-2-pyridin-3-ylpentyl) imidazo[1,2-a]pyridine-5-carboxamide], less than 2000 nM.
For `NC1CCCN(C(=O)c2cn3c(C(=O)NCC45CC6CC(CC(C6)C4)C5)cccc3n2)C1` (stereo not shown) [Compound 627, N-(adamantan-1-ylmethyl)-2-[(3-aminopiperidin-1-yl)carbonyl]imidazo[1,2-a]pyridine-5-carboxamide], the IC50 is less than 2000 nM.

Still in this experiment, the particulars now being: 50% decrease in the fluorescence response of cells exposed to 80 μM of 2′(3′)-O-(4-benzoyl-benzoyl)adenosine 5′-triphosphate; determined as in Example 4A; read-out: IC50.
For the compound `N[C@@H]1CCN(Cc2cn3c(C(=O)NCC4(c5ccc(C(F)(F)F)cc5)CCCCC4)cccc3n2)C1` [Compound 822, 2-{[(3R)-3-aminopyrrolidin-1-yl]methyl}-N-({1-[4-(trifluoromethyl)phenyl]cyclohexyl}methyl) imidazo[1,2-a] pyridine-5-carboxamide], the IC50 is less than 2000 nM.
Still for that read-out and setting: the value for `Cc1ccc(C2(CNC(=O)c3cccc4nc(Cn5nnc(CCO)n5)cn34)CCCCC2)cn1` [Compound 922, 2-{[5-(2-hydroxyethyl)-2H-tetrazol-2-yl]methyl}-N-{[1-(6-methylpyridin-3-yl)cyclohexyl]methyl} imidazo[1,2-a] pyridine-5-carboxamide] was less than 2000 nM.
With `O=C(NCC12CC3CC(CC(C3)C1)C2)c1cccc2nc(C3(C(=O)O)CCOCC3)cn12` [Compound 945, 4-{5-[(adamantan-1-ylmethyl)carbamoyl]imidazo[1,2-a]pyridin-2-yl}tetrahydro-2H-pyran-4-carboxylic acid], the concentration for half-maximal inhibition (IC50) is less than 2000 nM.
Same read-out and setting: the value for `O=C(Cc1cn2c(C(=O)NCC3(c4ccc(Cl)cc4)CCOCC3)cccc2n1)N[C@@H]1CCCNC1` [Compound 926, N-{[4-(4-chlorophenyl)tetrahydro-2H-pyran-4-yl]methyl}-2-{2-oxo-2-[(3R)-piperidin-3-ylamino]ethyl}imidazo [1,2-a]pyridine-5-carboxamide] was less than 2000 nM.

Still in this experiment, the particulars now being: SH-SY5Y cells; 50% decrease in fluorescence response to 80 μM BzATP; read-out: IC50.
As for `COCC1CCCCN1C(=O)Cc1cn2c(C(=O)NCC34CC5CC(CC(C5)C3)C4)cccc2n1` (stereo not shown) [Compound 177, N-(adamantan-1-ylmethyl)-2-{2-[2-(methoxymethyl)piperidin-1-yl]-2-oxoethyl}imidazo[1,2-a]pyridine-5-carboxamide], the half-inhibitory concentration (IC50) is less than 2000 nM.
Same read-out and setting: the value for `CN(CCNS(C)(=O)=O)C(=O)c1cn2c(C(=O)NCC34CC5CC(CC(C5)C3)C4)cccc2n1` [Compound 98, 5-N-(adamantan-1-ylmethyl)--methyl--{2-[(methyl-sulfonyl)amino]eth-yl)imidazo[1,2-a]pyridine-2,5-dicarboxamide] was less than 2000 nM.

Still in this experiment, the particulars now being: fluorescence response of cells exposed to 80 μM 2′(3′)-O-(4-benzoyl-benzoyl)adenosine 5′-triphosphate; Example 4A; read-out: IC50.
`CC1(C)[C@H]2CC[C@@H](CNC(=O)c3cccc4nc(C(=O)N5C[C@H]6CC5CN6)cn34)[C@@H]1C2` (stereo in doubt) [Compound 302, 2-[(1R,4R)-2,5-diazabicyclo[2.2.1]hept-2-ylcarbonyl]-N-{[(1S,2R,5S)-6,6-dimethylbicyclo[3.1.1]hept-2-yl]methyl}imidazo[1,2-a]pyridine-5-carboxamide]: the IC50 is less than 2000 nM.
Turning to `CC(C)N(CCCO)C(=O)c1cn2c(NC(=O)CC34CC5CC(CC(C5)C3)C4)cccc2n1` [Compound 416, 5-[(adamantan-1-ylacetyl)amino]-N-(3-hydroxypropyl)-N-isopropylimidazo[1,2-a]pyridine-2-carboxamide], the IC50 was less than 2000 nM.
In the case of `CN(C(=O)c1cn2c(C(=O)NC[C@@H]3CC[C@H]4C[C@@H]3C4(C)C)cccc2n1)C1CCCNC1` (stereo partly drawn) [Compound 311, 5-N-{[(1S,2R,5S)-6,6-dimethylbicyclo[3.1.1]hept-2-yl]methyl}-2-N-methyl-2-N-piperidin-3-ylimidazo[1,2-a]pyridine-2,5-dicarboxamide], the IC50 is less than 2000 nM.
As to `CCCOCCNC(=O)Cc1cn2c(C(=O)NCC(CC(C)C)c3ccccc3)cccc2n1` (stereo not shown) [Compound 230, N-(4-methyl-2-phenylpentyl)-2-{2-oxo-2-[(2-propoxyethyl)amino]ethyl}imidazo[1,2-a]pyridine-5-carboxamide], the IC50 was less than 2000 nM.
